The text below walks through data of ChEMBL document CHEMBL1121638, “Synthesis and preliminary pharmacological evaluation of asymmetric chloroquine analogues” (1981).

Where “and” joins values, the source holds several entries; their conditions need not be identical. Identical values can stand only once. Calls of active or inactive are those of the source. No cut-off for these calls is given here.

Common to all, as to assay type: functional
The species named for assay [1] is Mus musculus. In words: Compound was evaluated for the percentage inhibition of PGF2-alpha-induced contractions at a concentration of 10 e-5 M in isolated mouse ileum; NI=No inhibition.
The species entered for assay [2] is Mus musculus. In words: Compound was evaluated for the percentage inhibition of the control PGF2-alpha response at a concentration of 3 x 10 e-4 M in isolated mouse ileum.
Assay [3] is filed under the species Mus musculus. Briefly: Compound was evaluated for the percentage inhibition of PGF2-alpha-induced contractions at a concentration of 10 e-5 M in isolated mouse ileum.
Assay [4] is filed under the species Mus musculus. In words: Antispasmodic activity evaluated as percentage reduction in the contractile response of the estrous uterus in mouse.

One may read the inhibition as the share of the control response that was lost under treatment. Turning to `CCN(CC)CCC[C@H](CCl)Nc1ccnc2cc(Cl)ccc12`, in the assay listed under Mus musculus [1], the inhibition entry is “inactive”. For the same compound, in the assay filed under Mus musculus [2] (Mus musculus, Ileum), the inhibition at 300 µM was found to be 17%.
The Inhibition is the change of the read-out against control, counted positive when it falls. A lower Inhibition goes with a weak effect. On to `CCN(CC)CCC[C@@H](CCl)Nc1ccnc2cc(Cl)ccc12.Cl`, for which the inhibition at 10 µM in the assay listed under Mus musculus [3] came to 28%. The Inhibition in the assay listed under Mus musculus [2] is 55% and 32%.
`CCN(CC)CCC[C@H](C)Nc1ccnc2cc(Cl)ccc12` registered a Reduction in the assay filed under Mus musculus [4] of 50%.
